19 compounds from US12486246B2, “Replication protein A (RPA)-DNA interaction inhibitors” (THE TRUSTEES OF INDIANA UNIVERSITY, priority 2019, dated 2025) can be followed below.

In series [1] the target is T1, full length heterotrimeric human RPA (Homo sapiens, UniProt P27694).
T1 construct: Full length, heterotrimeric human RPA (fl-RPA) and DBD-A/B constructs were expressed and purified; made in house
Nature of the series: Electrophoretic mobility shift assay (EMSA), binding of full length human RPA to ssDNA. As to conditions: for IC50: full length human RPA binding to DNA, mean ± SD of minimum triplicate experiments. Here is the method:
Full length, heterotrimeric human RPA (fl-RPA) and DBD-A/B constructs were expressed and purified according to previously described protocol. The DBD-A/B construct was expressed as a His6-RPA181-422 fusion protein. E. coli BL21 (DE3) cells in log growth were induced for 3 h with 0.5 mM IPTG at 37° C. The cells were lysed via sonication in buffer containing 20 mM Tris pH 7.5, 500 mM NaCl, 10 mM b-mercaptoethanol, supplemented with 25 μg/mL lysozyme, 1 μg/mL leupeptin, 1 μg/mL pepstatin and 0.5 mM PMSF. The lysate was applied to a 20 mL phosphocellulose column equilibrated in the same buffer and the flow-through material collected, brought to 5 mM Imidazole and loaded onto a 2 ml Ni-NTA column. The column was washed and proteins eluted on with a gradient from 50 mM to 500 mM imidazole. Fractions were assessed by EMSA and SDS-PAGE and DBD-A/B containing fraction were pool, dialyzed against buffer containing 50 mM HEPES pH 7.0, 500 mM NaCl and 1 mM DTT and stored at −80° C.
EMSAs were carried out using previously described procedure with the following modification. EMSA reactions (20 μL) were performed with 50 nM fl-RPA and 2.5 nM 5′ [^32P]-labeled 34-base DNA in buffer containing 20 mM HEPES (pH 7.8), 1 mM DTT, 0.001% NP-40, 50 mM NaCl. Chemical compounds were suspended in DMSO and DMSO concentration in the reaction mixture was kept constant at 2% or below 5%. RPA was incubated with inhibitor or DMSO control in reaction buffer for 30 min before the addition of DNA. Reactions were incubated for 5 min at room temperature and products separated via 6% native polyacrylamide gel electrophoresis. The bound and unbound fractions were then quantified by phosphor-imager analysis using ImageQuant software (Molecular Dynamics, CA) and IC50 values calculated by non-linear regression using SigmPlot (Sysat). For EMSA reactions with RPA DBD-A/B, 150 nM DBD-A/B was used, and electrophoresis was performed at 4° C. All other conditions were identical to those described for the full-length RPA.
Purified full length heterotrimeric human RPA protein was used to screen a series of analogs in an electrophoretic mobility shift assay (EMSA) measuring direct binding to a ss-DNA substrate. Quantification of the EMSA data and additional concentration dependent analysis to measure IC50 values of newly synthesized analogs provided potential insight into the structure-activity relationships (Table 1 and 2). […] Fluorine and trifluoromethyl substituents were included in pyridinyl compounds 28-29.

Series [2] deals with sonicated salmon sperm DNA. Nature of the series: Fluorescent intercalator displacement (FID) assay, SYBR-Green. Conditions: 25 mM MOPS pH 6.5. In kind it is binding. The method, then:
The analysis of compound interactions with DNA was determined by inhibition of SYBR-Green intercalation into DNA as we have previously described. Briefly, reactions were performed in 25 mM MOPS (pH 6.5) containing sonicated salmon sperm DNA (8.29 ng/μL), SYBR-Green, and the indicated concentrations of RPA inhibitors. Reactions were conducted in black 96-well plates. Doxorubicin, a known noncovalent DNA binding chemotherapeutic, was used as a positive control. Fluorescence was measured using a BioTek® Synergy™ H1 hybrid multi-mode microplate reader with an excitation wavelength of 485 nm, emission wavelength of 528 nm, and a read height of 7 mm. Data were collected using BioTek® Gen5™ reader software. Reactions were incubated a maximum of 5 min before measurements were collected.
In order to probe the potential role of DNA intercalation as a mechanism for RPA inhibition, compounds 19, 23, 26, 27, 43 and 45 were analyzed using FID assay along with doxorubicin (Dox) as a positive control. […] In addition, direct binding of 9 derivatives to the target protein was assessed using a differential scan fluorimetry (DSF) assay. This assay assesses the melting profile of a protein at increasing temperatures via fluorescent dye binding. The direct interaction of a small molecule to the target protein can either increase or decrease the melting temperature (Tm) of the target depending on the specific protein and their interactions. […] Heparin sulfate, a known RPA interacting molecule often used in the purification of the protein was used as a control. […] (data not shown). […] (FIG. 1B).

Series [3] is described as follows: Aqueous solubility in unbuffered water. In kind it is physicochemical. As to conditions: 43, 44, 45, 46, 47 vs 9, 16, 26, 28, 29 respectively. Here is the method:
Aqueous solubility was determined by suspending compound in un-buffered water with stirring. Insoluble material was removed by sedimentation or filtration and soluble compound quantified by absorbance spectroscopy and LC/MS. pH dependence was determined by suspending compound in 10 mM citrate buffer at pH 4.0 or 10 mM phosphate […] as described above in the description.
The morpholine ring is commonly introduced into solvent exposed regions as a privileged solubilizing group to improve solubility or pharmacokinetic properties including metabolic stability of a prospective drug scaffold which is exemplified by many FDA approved drugs. Modifications on Ring A had less of an effect than the morpholino modifications at the alkyl carboxylic acid side chain. To determine the effect of pH on solubility, we prepared solution at 1 mM in citrate buffer at pH 4, phosphate buffer at pH 7 and carbonate buffer at pH 9.5.

The structures appear in SMILES notation. Where only a bound is given, the exact number is not on record here.

Usually IC50 stands for the concentration that gives 50% inhibition.

T1 sequence (P27694 whole entry): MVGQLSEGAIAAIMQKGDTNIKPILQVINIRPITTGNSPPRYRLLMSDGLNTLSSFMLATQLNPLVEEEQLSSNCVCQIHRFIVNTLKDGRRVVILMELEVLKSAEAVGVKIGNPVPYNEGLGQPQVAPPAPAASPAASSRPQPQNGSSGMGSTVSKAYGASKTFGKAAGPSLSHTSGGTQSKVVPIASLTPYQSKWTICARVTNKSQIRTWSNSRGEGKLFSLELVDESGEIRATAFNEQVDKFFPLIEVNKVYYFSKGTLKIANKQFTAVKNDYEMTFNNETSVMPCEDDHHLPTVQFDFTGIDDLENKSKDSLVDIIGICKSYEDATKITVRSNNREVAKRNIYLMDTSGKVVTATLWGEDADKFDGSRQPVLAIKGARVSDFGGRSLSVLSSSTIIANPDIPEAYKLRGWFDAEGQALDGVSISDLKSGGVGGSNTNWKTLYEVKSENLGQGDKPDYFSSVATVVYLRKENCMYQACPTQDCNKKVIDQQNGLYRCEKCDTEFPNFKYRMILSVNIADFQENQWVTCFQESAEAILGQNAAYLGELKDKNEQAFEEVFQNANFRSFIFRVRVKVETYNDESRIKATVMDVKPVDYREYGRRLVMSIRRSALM
T1 sequence (P15927 whole entry partner): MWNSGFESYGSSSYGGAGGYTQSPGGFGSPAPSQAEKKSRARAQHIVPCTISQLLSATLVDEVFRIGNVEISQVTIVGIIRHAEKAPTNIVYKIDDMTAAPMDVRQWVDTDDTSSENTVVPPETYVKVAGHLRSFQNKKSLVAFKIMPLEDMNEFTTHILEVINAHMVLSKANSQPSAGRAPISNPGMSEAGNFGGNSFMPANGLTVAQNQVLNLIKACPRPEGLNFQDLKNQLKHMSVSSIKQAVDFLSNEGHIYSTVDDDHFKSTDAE
T1 sequence (P35244 whole entry partner): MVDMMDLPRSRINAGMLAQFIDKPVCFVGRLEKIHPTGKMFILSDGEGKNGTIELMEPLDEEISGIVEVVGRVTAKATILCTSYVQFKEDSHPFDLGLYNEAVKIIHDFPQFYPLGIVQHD

Turning to `CCOc1ccc2cc(C3CC(c4ccc(Br)cc4)=NN3C(=O)CCCC(=O)O)c(Cl)nc2c1` (stereo not shown) [Compound 16, 5-(3-(4-Bromophenyl)-5-(2-chloro-7-ethoxyquinolin-3-yl)-4,5-dihydro-1H-pyrazol-1-yl)-5-oxopentanoic acid], the IC50 in series [1] stood at 19.2 ± 4.17 µM.

In the case of `CCOc1ccc2cc(C3CC(c4ccc(O)cc4)=NN3C(=O)CCCC(=O)O)c(Cl)nc2c1` (stereo not shown) [Compound 17, 5-(5-(2-Chloro-7-ethoxyquinolin-3-yl)-3-(4-hydroxyphenyl)-4,5-dihydro-1H-pyrazol-1-yl)-5-oxopentanoic acid], the IC50 in series [1] is greater than 25 µM.

Take `CCOc1ccc2cc(C3CC(c4ccc([N+](=O)[O-])cc4)=NN3C(=O)CCCC(=O)O)c(Cl)nc2c1` (stereo not shown) [Compound 18, 5-(5-(2-Chloro-7-ethoxyquinolin-3-yl)-3-(4-nitrophenyl)-4,5-dihydro-1H-pyrazol-1-yl)-5-oxopentanoic acid]: in series [1], the IC50 is greater than 25 µM.

As for `CCOc1ccc2cc(C3CC(c4ccc(N)cc4)=NN3C(=O)CCCC(=O)O)c(Cl)nc2c1` (stereo not shown) [Compound 19, 5-(3-(4-Aminophenyl)-5-(2-chloro-7-ethoxyquinolin-3-yl)-4,5-dihydro-1H-pyrazol-1-yl)-5-oxopentanoic acid], the “DNA binding activity (displacement of SYBR-Green intercalator)” value in series [2] is “No significant DNA binding activity”. For the same compound, the IC50 in series [1] was 2.34 ± 0.22 µM.

Regarding `C=CC(=O)Oc1ccc(C2=NN(C(=O)CCCC(=O)O)C(c3cc4ccc(OCC)cc4nc3Cl)C2)cc1` (stereo not shown) [Compound 20, 5-(3-(4-(Acryloyloxy)phenyl)-5-(2-chloro-7-ethoxyquinolin-3-yl)-4,5-dihydro-1H-pyrazol-1-yl)-5-oxopentanoic acid], the “fold increase in potency/activity compared to compound 9” value in series [1] (full length RPA) is on record as 2 fold. Also, in series [1], the IC50 came to 8.98 ± 0.98 µM.

As to `CCOc1ccc2cc(C3CC(c4ccc(OC(=O)N5CCOCC5)cc4)=NN3C(=O)CCCC(=O)O)c(Cl)nc2c1` (stereo not shown) [Compound 21, 5-(5-(2-Chloro-7-ethoxyquinolin-3-yl)-3-(4-((morpholine-4-carbonyl)oxy)phenyl)-4,5-dihydro-1H-pyrazol-1-yl)-5-oxopentanoic acid], the “RPA inhibitory activity compared to compound 9 (in words)” value in series [1] (full length RPA) is on record as “decreased RPA inhibition”. Also, the IC50 in series [1] was greater than 25 µM.

For `CCOc1ccc2cc(C3CC(c4ccc(-c5ccoc5)cc4)=NN3C(=O)CCCC(=O)O)c(Cl)nc2c1` (stereo not shown) [Compound 22, 5-(5-(2-chloro-7-ethoxyquinolin-3-yl)-3-(4-(furan-3-yl)phenyl)-4,5-dihydro-1H-pyrazol-1-yl)-5-oxopentanoic acid], in series [1], the IC50 was 6.77 ± 0.64 µM.

Take `CCOc1ccc2cc(C3CC(c4ccc(-c5ccc(F)nc5)cc4)=NN3C(=O)CCCC(=O)O)c(Cl)nc2c1` (stereo not shown) [Compound 28, 5-(5-(2-Chloro-7-ethoxyquinolin-3-yl)-3-(4-(6-fluoropyridin-3-yl)phenyl)-4,5-dihydro-1H-pyrazol-1-yl)-5-oxopentanoic acid]: the IC50 in series [1] was found to be 2.66 ± 0.6 µM.

On to `CCOc1ccc2cc(C3CC(c4ccc(-c5ccc(C(F)(F)F)nc5)cc4)=NN3C(=O)CCCC(=O)O)c(Cl)nc2c1` (stereo not shown) [Compound 29, 5-(5-(2-Chloro-7-ethoxyquinolin-3-yl)-3-(4-(6-(trifluoromethyl)pyridin-3-yl)phenyl)-4,5-dihydro-1H-pyrazol-1-yl)-5-oxopentanoic acid], for which the IC50 in series [1] was 4.35 ± 0.42 µM.

Turning to `CCOC(=O)CCCC(=O)N1N=C(c2ccc(I)cc2)CC1c1cc2ccc(OCC)cc2nc1Cl` (stereo not shown) [Compound 30, ethyl 5-(5-(2-chloro-7-ethoxyquinolin-3-yl)-3-(4-iodophenyl)-4,5-dihydro-1H-pyrazol-1-yl)-5-oxopentanoate], the “RPA inhibitory activity compared to compound 9 (in words)” value in series [1] (full length RPA) was “decreased RPA inhibitory activity”. In addition, the IC50 in series [1] is greater than 25 µM.

`CCOc1ccc2cc(C3CC(c4ccc(I)cc4)=NN3C(=O)CCCCC(=O)O)c(Cl)nc2c1` (stereo not shown) [Compound 37, 6-(5-(2-Chloro-7-ethoxyquinolin-3-yl)-3-(4-iodophenyl)-4,5-dihydro-1H-pyrazol-1-yl)-6-oxohexanoic acid]: the IC50 in series [1] worked out at 6.86 ± 0.23 µM.

For the compound `CCOc1ccc2cc(C3CC(c4ccc(I)cc4)=NN3C(=O)CCCCCC(=O)O)c(Cl)nc2c1` (stereo not shown) [Compound 38, 7-(5-(2-Chloro-7-ethoxyquinolin-3-yl)-3-(4-iodophenyl)-4,5-dihydro-1H-pyrazol-1-yl)-7-oxoheptanoic acid], the IC50 in series [1] is 9.93 ± 1.23 µM.

As for `CCOc1ccc2cc(C3CC(c4ccc(I)cc4)=NN3c3cccc(C(=O)O)c3)c(Cl)nc2c1` (stereo not shown) [Compound 39, 3-(5-(2-Chloro-7-ethoxyquinolin-3-yl)-3-(4-iodophenyl)-4,5-dihydro-1H-pyrazol-1-yl)benzoic acid], the IC50 in series [1] is greater than 25 µM.

With `CCOc1ccc2cc(C3CC(c4ccc(I)cc4)=NN3c3ccc(C(=O)O)cc3)c(Cl)nc2c1` (stereo not shown) [Compound 40, 4-(5-(2-Chloro-7-ethoxyquinolin-3-yl)-3-(4-iodophenyl)-4,5-dihydro-1H-pyrazol-1-yl)benzoic acid], in series [1], the IC50 was greater than 25 µM.

In the case of `CCOc1ccc2cc(C3CC(c4ccc(I)cc4)=NN3C(=O)CCCC(=O)N3CCOCC3)c(Cl)nc2c1` (stereo not shown) [Compound 41, 1-(5-(2-Chloro-7-ethoxyquinolin-3-yl)-3-(4-iodophenyl)-4,5-dihydro-1H-pyrazol-1-yl)-5-morpholinopentane-1,5-dione], the IC50 in series [1] turned out to be 6.63 ± 0.48 µM.

As for `CCOc1ccc2cc(C3CC(c4ccc(I)cc4)=NN3C(=O)CCCC(=O)NCCN3CCOCC3)c(Cl)nc2c1` (stereo not shown) [Compound 42, 5-(5-(2-Chloro-7-ethoxyquinolin-3-yl)-3-(4-iodophenyl)-4,5-dihydro-1H-pyrazol-1-yl)-N-(2-morpholinoethyl)-5-oxopentanamide], the IC50 in series [1] was 10.5 ± 0.68 µM.

On to `CCOc1ccc2cc(C3CC(c4ccc(Br)cc4)=NN3C(=O)CCCC(=O)NCCCN3CCOCC3)c(Cl)nc2c1` (stereo not shown) [Compound 44, 5-(3-(4-Bromophenyl)-5-(2-chloro-7-ethoxyquinolin-3-yl)-4,5-dihydro-1H-pyrazol-1-yl)-N-(3-morpholinopropyl)-5-oxopentanamide], for which the “aqueous solubility compared to carboxylic acid counterpart (in words)” value in series [3] was “increased solubility”. Moreover, in series [1], the concentration for half-maximal inhibition (IC50) was determined as 10 ± 1.46 µM.

As for `CCOc1ccc2cc(C3CC(c4ccc(-c5ccc(F)nc5)cc4)=NN3C(=O)CCCC(=O)NCCCN3CCOCC3)c(Cl)nc2c1` (stereo not shown) [Compound 46, 5-(5-(2-Chloro-7-ethoxyquinolin-3-yl)-3-(4-(6-fluoropyridin-3-yl)phenyl)-4,5-dihydro-1H-pyrazol-1-yl)-N-(3-morpholinopropyl)-5-oxopentanamide], in series [3], the “aqueous solubility compared to carboxylic acid counterpart (in words)” value was “increased solubility”. Also, the IC50 in series [1] came out at 2.29 ± 0.31 µM.

With `COc1cccc2c1C(=O)c1c(O)c3c(c(O)c1C2=O)C[C@@](O)(C(=O)CO)C[C@@H]3O[C@H]1C[C@H](N)[C@H](O)[C@H](C)O1` [doxorubicin, reference compound], the “DNA binding activity (displacement of SYBR-Green intercalator)” value in series [2] was “concentration dependent reduction in fluorescence”.
